According to patent US20250235476A1, “METHODS AND COMPOSITIONS THAT ARE ALTERNATIVES TO ANTIBIOTICS” (priority 2022, published 2025):

Tested on: non-specific upper respiratory infection (URI)
Experiment: Randomized double-blind placebo-controlled clinical trial: Days To Recovery (DTR)
Type: in vivo, human
Details: added to EZC during acute phase of illness
Protocol: Methods: A total of 360 patients across the United States were enrolled and randomized in a double-blind manner across two intervention groups, EZC, EZCD, and one placebo group. The study was conducted utilizing a smartphone-based app to screen, enroll and capture study data of the participants. Once a study participant reported the first symptoms of a URI, they were advised to take the intervention as directed and complete the daily symptom survey score until their symptoms resolved.
A total of 360 individuals, male or female over 18 years old, were enrolled by a third-party clinical research organization (CRO), to participate in the study. […] The placebo was composed of rice concentrate.
The study was conducted with the CRO's technology platform utilized to screen, enroll and capture study data of the participants.
Once a study participant reported the first symptoms of a URI, they were advised to take the intervention (i.e., placebo, EZC, or EZCD) taper dosed over a five-day period.
DTR is a metric that measures the total number of days in which a patient is experiencing symptoms of an illness while taking the intervention or placebo. DTR also directly lends itself for use in a log-rank analysis, which is used to compute statistical significance.
The primary limitation of DTR arises from the heterogeneous nature of the illness and the patient's unique recovery. […]

Substance: vitamin D
- effect of addition of vitamin D on illness duration or symptom severity: neither benefited nor harmed
